Data taken from patent publication US20180237362A1, “NOVEL POLYGODIAL ANALOGS FOR THE TREATMENT OF CANCER AND OTHER PROLIFERATIVE DISEASES” (THE BOARD OF REGENTS OF THE UNIVERSITY OF TAXAS SYSTEM, priority 2015, published 2018).

Legend:
Type in all cases: cell-based, human
[1] = tested on: uterine sarcoma MES-SA cells; assay: MTT antiproliferative assay, MES-SA; conditions: 48 h treatment, relative to DMSO control, read-out: GI50 in vitro values, MES-SA
Procedure: Human mammary carcinoma MCF-7 (ATCC HTB22) cells were cultured in RPMI supplemented with 10% FBS. The U87 cells (ATCC HTB-14) were cultured in DMEM culture medium, while the A549 cells (DSMZ ACC107) were cultured in RPMI culture medium supplemented with 10% heat-inactivated FBS. The GBM Hs683 (ATCC HTB-138) cells were cultivated in DMEM supplemented with 10% FBS. The human uterine sarcoma MES-SA (ATCC CRL1966) and MES-SA/D×5 cells were cultured in RPMI-1640 medium supplemented with 10% FBS with MES SA/D×5 maintained in the presence of 500 nM Doxorubicin (Sigma). SKMEL-28 cells (ATCC HTB72) and U373 GBM cells (ECACC 08061901) were cultured in RPMI culture medium supplemented with 10% heat-inactivated FBS. Cell culture media were supplemented with 4 mM glutamine (Lonza code BE17-605E), 100 μg/mL gentamicin (Lonza code 17-5182), and penicillin-streptomycin (200 units/ml and 200 μg/ml) (Lonza code 17-602E). The MDA-MB-231 (ATCC HTB-26) epithelial mammary adenocarcinoma cells were cultured in Eagle's minimum essential medium (EMEM; Invitrogen) containing 5% fetal calf serum (FCS, Cambrex), 2 mM L-glutamine (Invitrogen), 0.06% HEPES (Invitrogen) and penicillin (50 IU/ml)/streptomycin (50 µg/ml; Invitrogen) at 37° C. in a humidified atmosphere of 5% CO2 in air. Transformed mouse NPCs were cultured in suspension under neurosphere conditions at 37° C. in a humidified atmosphere of […] and 5% CO2 in DMEM F12 (Invitrogen 11320-074) supplemented with 1×B27 supplement (Invitrogen 17504-044), 5% penicillin-streptomycin (Biochrom 10378-017), 10 ng/ml EGF (R&D systems 236-EG), 10 ng/ml FGF (PeproTech 100-18B).
Antiproliferative properties of the synthesized compounds were evaluated by the MTT assay. All compounds were dissolved in DMSO at a concentration of either 100 μM or 50 μM prior to cell treatment. The cells were trypsinized and seeded at various cell concentrations depending on the cell type. […]

HSC3 cells = assay: Morphological changes, HSC3; conditions: P3 50 μM, 1 hour
Procedure: FIGS. 12A-B Morphological changes (20×) in HeLa cells (FIG. 12Aa-d) and HSC3 cells (FIG. 12Ba-d) with no treatment (a) or treated with Polygodial 80 μM (b), P10 4 μM (c), and P3 50 μM (d) for 1 hour. Differences in morphological changes between treatments indicate potentially unique mechanisms-of-action between polygodial and P10 (isomer), and P3 (novel analog).

U373 cells = assay: Trypan blue viability assay, U373; conditions: 72 h treatment
Procedure: FIG. 9. Viability of U373 cells by trypan blue staining. U373 cells were treated for 72 h with 1 or 13 and stained with trypan blue. The experiment was conducted once in triplicate. After having taken pictures, cells were fixed with ice-cold methanol and again stained with trypan blue as internal positive control.
To confirm the results obtained in the videomicroscopy experiments, trypan blue assay was employed to detect necrotic and late apoptotic cells that had lost their plasma membrane integrity (FIG. 9). […] These observations support the results of the MTT assay and provide an explanation for the effectiveness of the C12-Wittig derivatives against cells, which display resistance to apoptosis induction. In contrast, at the concentrations necessary to induce cancer cell death 1 behaves as a toxic fixative compound of little promise as a potential drug.

Row | Compound | GI50 [1] | morphological changes, HSC3 (HSC3 cells) | viability by trypan blue staining (U373 cells)
1 | COC(=O)/C=C/C1=CC[C@H]2C(C)(C)CCC[C@]2(C)[C@H]1C=O [Compound 5] | 40 µM | apoptotic figures | –
2 | CC1(C)CCC[C@]2(C)[C@@H](C=O)C(C=O)=CC[C@@H]12 [Compound 1, Polygodial] | – | – | all blue-stained before methanol fixation
